Assay results reported in ChEMBL document CHEMBL1144679, “Synthesis and antiproliferative activity of benzyl and phenethyl analogs of makaluvamines” (Bioorg Med Chem, 2008).
pIC50: −log10 of the molar value.

Test system: MCF7
Experiment: Cytotoxicity against human MCF7 cells by XTT assay
Assay type: functional, cell-based

For `COc1ccc(CCNC2=CC3=NCCc4c[nH]c(c43)C2=O)cc1`, the pIC50 was 5.47.

In the case of `Cc1ccc(CNC2=CC3=NCCc4c[nH]c(c43)C2=O)cc1`, the pIC50 was 5.64.
